Six compounds from patent US20240239806A1, “COMPOUNDS, COMPOSITIONS AND METHODS OF TREATING DISORDERS” (Chengdu Anticancer Bioscience, Ltd., priority 2021, published 2024) can be followed below.

Like-named read-outs stand apart in the source and are kept apart here.

Type in all cases: cell-based
The test system of test [1] is MDA-MB-231. Description: MTT assay of cellular proliferation. Particulars: Homo sapiens; MDA-MB-231, MTT, 50% inhibition of cellular proliferation. The method in brief:
(§1)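 Compound dosing: 1 nM to 30 μM on subconfluent (20-30%) cultures in DMEM, 5% FBS. Readout was MTT reduction over 3-4 h, formazan at A570; EC50 derived.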
Background: Formazan colour is commonly taken as a measure of viable cells.

Test [2] deals with Hela. Description: MTT assay of cellular proliferation. The note with it: Homo sapiens, 50% inhibition of cellular proliferation. Summed up:
as §1

Test [3] relates to HCT116. Description: MTT assay of cellular proliferation. Particulars: Homo sapiens, HCT-116, 50% inhibition of cellular proliferation. The method in brief: as §1
A further test relates to NCI-H23. Description: MTT assay of cellular proliferation. The note with it: Homo sapiens, 50% inhibition of cellular proliferation. Summed up:
as §1

In test [4] the test system is T2 HCC. Description: MTT assay of cellular proliferation. Particulars: Mus musculus, 50% inhibition of cellular proliferation. Summed up: as §1
Test [5] has as its system T98G. Description: MTT assay of cellular proliferation. Particulars: Homo sapiens, 50% inhibition of cellular proliferation. Summed up:
as §1

Test [6] has as its system NCI-H596. Description: MTT assay of cellular proliferation. The note with it: Homo sapiens, 50% inhibition of cellular proliferation. Summed up:
as §1

For test [7], the system named is NCI-H460. Description: MTT assay of cellular proliferation. Particulars: Homo sapiens, 50% inhibition of cellular proliferation. Summed up: as §1
The test system of test [8] is MDA-MB-231. Description: MECP in cancer cell line. The note with it: Homo sapiens. The method in brief: (§2)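 Imaging read-out (IN-Cell 2000): mitotic index at 24 h, polyploidy/DNA content at 48 h, also 72 h. Cells in DMEM/5% FBS, 37 °C, 5% CO2; compound 1 nM–30 μM. Binned A ≤1.0 μM, B ≤10.0 μM, C ≤30.0 μM, D >30.0 μM.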
The test system of test [9] is Hela. As to the kind of experiment: MECP in cancer cell line. The note with it: Homo sapiens. Summed up:
as §2

The subject of test [10] is HCT116. As to the kind of experiment: MECP in cancer cell line. The note with it: Homo sapiens, HCT-116. The method in brief: as §2
Test [11] deals with T2 HCC. As to the kind of experiment: MECP in cancer cell line. Particulars: Mus musculus. The method in brief:
as §2

Test [12] relates to T98G. As to the kind of experiment: MECP in cancer cell line. Particulars: Homo sapiens. The method in brief: as §2
Test [13] concerns NCI-H596. Description: MECP in cancer cell line. Particulars: Homo sapiens. Summed up: as §2
Test [14] concerns NCI-H460. Description: MECP in cancer cell line. Particulars: Homo sapiens. Summed up:
as §2

The next test has as its system RPEMYC^H2B-GFP cells. As to the kind of experiment: Phenotypic screening assay (mitotic arrest, polyploidy). The note with it: 1 nM to 30 μM; for IC50: read-out: Proliferative arrest (>50%). Summed up:
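RPE cells expressing MYC and H2B-EGFP treated with compound at 1 nM–30 μM; mitotic index scored at 24 h and polyploidy (DNA content) at 48 h by automated imaging, with reads at 24, 48 or 72 h. Hits show transient mitotic arrest followed by polyploid accumulation.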

[15] abbreviates: read-out: Min. Effective conc. for Polyploidy (≥5%).

For the compound `COc1cc(OC)cc(Oc2ccnc3ccccc23)c1` [Compound 7, 4-(3,5-dimethoxyphenoxy)quinoline], the EC50 (usually the concentration that produces a half-maximal response) with MDA-MB-231 [1] lay in the range of 0.001 to 1 µM; with Hela [2] it was 1 to 10 µM; with HCT116 [3], 0.001 to 1 µM; with NCI-H23, 0.001 to 1 µM; in the test with T2 HCC [4], 1 to 10 µM; in the test with T98G [5], 0.001 to 1 µM. Moreover, the EC50 in the test on NCI-H596 [6] and with NCI-H460 [7] was 1 to 10 µM each time. Besides, the minimal effective concentration in the test with MDA-MB-231 [8] lay within 0.001 to 1 µM; in the test on Hela [9], 0.001 to 1 µM; with HCT116 [10], 0.001 to 1 µM; in the test with T2 HCC [11] it was 1 to 10 µM; with T98G [12], 0.001 to 1 µM; in the test with NCI-H596 [13], 0.001 to 1 µM. Moreover, the results for the minimal effective concentration in the test on NCI-H460 [14], in the test on RPEMYC^H2B-GFP cells (setting [15]) and in the test with RPEMYC^H2B-GFP cells (read-out: Mitotic Arrest (≥5%)) were 1 to 10 µM, 0.001 to 1 µM and 0.001 to 1 µM, respectively. Further, the IC50 in the test on RPEMYC^H2B-GFP cells is 0.001 to 1 µM.
`COC(=O)c1cc(OC)cc(Oc2ncnc3cc(OC)c(OC)cc23)c1` [Compound 29]: the EC50 was in the range of 0.001 to 1 µM with MDA-MB-231 [1]; 0.001 to 1 µM with Hela [2]; 1 to 10 µM in the test with HCT116 [3]; 0.001 to 1 µM with NCI-H23; 0.001 to 1 µM with T2 HCC [4]; 1 to 10 µM in the test on T98G [5]. Moreover, the EC50 is 0.001 to 1 µM with NCI-H596 [6] and over 30 µM in the test on NCI-H460 [7]. Also, the minimal effective concentration in the test on MDA-MB-231 [8] lay in the range of 1 to 10 µM; in the test with Hela [9] it was 0.001 to 1 µM; with HCT116 [10], 1 to 10 µM; in the test on T2 HCC [11], 0.001 to 1 µM; in the test with T98G [12], 1 to 10 µM; with NCI-H596 [13], 0.001 to 1 µM. The minimal effective concentration in the test on NCI-H460 [14] fell in the range of 1 to 10 µM; in the test with RPEMYC^H2B-GFP cells (setting [15]), 0.001 to 1 µM; in the test with RPEMYC^H2B-GFP cells (read-out: Mitotic Arrest (≥5%)) it was 0.001 to 1 µM. In addition, the IC50 in the test with RPEMYC^H2B-GFP cells fell in the range of 0.001 to 1 µM.
For the compound `COC(=O)c1cc(OC)cc(Oc2ncnc3cc[nH]c23)c1` [Compound 34, methyl 3-((5H-pyrrolo[3,2-d]pyrimidin-4-yl)oxy)-5-methoxybenzoate], the EC50 in the test on MDA-MB-231 [1] is 0.001 to 1 µM; in the test on Hela [2] it was 0.001 to 1 µM; with HCT116 [3], 0.001 to 1 µM; in the test on NCI-H23 it was 0.001 to 1 µM; in the test on T2 HCC [4], 0.001 to 1 µM; in the test on T98G [5], over 30 µM. Moreover, the EC50 is 0.001 to 1 µM in the test with NCI-H596 [6] and over 30 µM in the test on NCI-H460 [7]. The minimal effective concentration in the test with MDA-MB-231 [8] lay in the range of 0.001 to 1 µM; with Hela [9], 0.001 to 1 µM; in the test with HCT116 [10], 0.001 to 1 µM; in the test on T2 HCC [11], 0.001 to 1 µM; in the test on T98G [12], 1 to 10 µM; with NCI-H596 [13], 0.001 to 1 µM. Besides, the minimal effective concentration in the test on NCI-H460 [14] lay in the range of 1 to 10 µM; in the test with RPEMYC^H2B-GFP cells (setting [15]) it was 0.001 to 1 µM; with RPEMYC^H2B-GFP cells (read-out: Mitotic Arrest (≥5%)), 0.001 to 1 µM. Further, the IC50 in the test with RPEMYC^H2B-GFP cells was in the range of 0.001 to 1 µM.
On to `COC(=O)c1cc(Oc2ncnc3cc[nH]c23)cc(C(=O)OC)c1` [Compound 36, dimethyl 5-((5H-pyrrolo[3,2-d]pyrimidin-4-yl)oxy)isophthalate], for which the EC50 with MDA-MB-231 [1], in the test with Hela [2], in the test with HCT116 [3], with NCI-H23, with T2 HCC [4] and in the test with T98G [5] was 0.001 to 1 µM each time. In addition, the EC50 in the test on NCI-H596 [6] is 0.001 to 1 µM; in the test on NCI-H460 [7], over 30 µM. In addition, the minimal effective concentration with MDA-MB-231 [8], in the test on Hela [9], in the test with HCT116 [10], in the test on T2 HCC [11], in the test with T98G [12] and with NCI-H596 [13] was 0.001 to 1 µM each time. Further, the values for the minimal effective concentration with NCI-H460 [14], in the test on RPEMYC^H2B-GFP cells (setting [15]) and in the test with RPEMYC^H2B-GFP cells (read-out: Mitotic Arrest (≥5%)) were 1 to 10 µM, 0.001 to 1 µM and 0.001 to 1 µM, respectively. The IC50 in the test on RPEMYC^H2B-GFP cells was in the range of 0.001 to 1 µM.
With `COC(=O)c1cc(OC)cc(Oc2ncnc3ccsc23)c1` [Compound 37, methyl 3-methoxy-5-(thieno[3,2-d]pyrimidin-4-yloxy)benzoate], the EC50 in the test with MDA-MB-231 [1] is 0.001 to 1 µM; with Hela [2] it was 0.001 to 1 µM; in the test on HCT116 [3], 0.001 to 1 µM; with NCI-H23 it was 0.001 to 1 µM; in the test with T2 HCC [4], 0.001 to 1 µM; with T98G [5], over 30 µM. Besides, the EC50 with NCI-H596 [6] was 0.001 to 1 µM; with NCI-H460 [7], over 30 µM. The minimal effective concentration in the test on MDA-MB-231 [8] was in the range of 0.001 to 1 µM; in the test with Hela [9] it was 0.001 to 1 µM; with HCT116 [10], 0.001 to 1 µM; in the test with T2 HCC [11], 0.001 to 1 µM; in the test on T98G [12], 1 to 10 µM; in the test on NCI-H596 [13], 0.001 to 1 µM. In addition, the results for the minimal effective concentration in the test on NCI-H460 [14], with RPEMYC^H2B-GFP cells (setting [15]) and with RPEMYC^H2B-GFP cells (read-out: Mitotic Arrest (≥5%)) were 1 to 10 µM, 0.001 to 1 µM and 0.001 to 1 µM, respectively. In addition, the IC50 in the test on RPEMYC^H2B-GFP cells is 0.001 to 1 µM.
For the compound `COC(=O)c1cc(Oc2ncnc3ccsc23)cc(C(=O)OC)c1` [Compound 39, dimethyl 5-(thieno[3,2-d]pyrimidin-4-yloxy)isophthalate], the EC50 in the test with MDA-MB-231 [1], in the test with Hela [2], with HCT116 [3], with NCI-H23, in the test with T2 HCC [4] and in the test on T98G [5] was 0.001 to 1 µM in each case. The EC50 with NCI-H596 [6] and in the test with NCI-H460 [7] was over 30 µM each time. Moreover, the minimal effective concentration in the test on MDA-MB-231 [8], in the test with Hela [9], in the test with HCT116 [10], in the test on T2 HCC [11], in the test on T98G [12] and with NCI-H596 [13] was 0.001 to 1 µM throughout. For the same compound, the minimal effective concentration in the test on NCI-H460 [14] lay in the range of 1 to 10 µM; in the test on RPEMYC^H2B-GFP cells (setting [15]), 0.001 to 1 µM; in the test with RPEMYC^H2B-GFP cells (read-out: Mitotic Arrest (≥5%)), 0.001 to 1 µM. The “Min. Effective conc. for Polyploidy (≥5%)” value in the test with RPEMYC^H2B-GFP cells was “B (a value greater than 1.00 μM and less than or equal to 10.0 μM)”. Besides, in the test on RPEMYC^H2B-GFP cells, the “Mitotic Arrest (≥5%)” value was “B (a value greater than 1.00 μM and less than or equal to 10.0 μM)”. The “Proliferative arrest (>50%)” value with RPEMYC^H2B-GFP cells is “B (a value greater than 1.00 μM and less than or equal to 10.0 μM)”. In addition, the “Along with Cell Death” value in the test with RPEMYC^H2B-GFP cells (listed as 33) is “B (a value greater than 1.00 μM and less than or equal to 10.0 μM)”. Also, the IC50 in the test on RPEMYC^H2B-GFP cells lay within 0.001 to 1 µM.
